Data reported in patent US20240382494A1, “THERAPEUTIC COMPOUNDS” (priority 2023, published 2024).
Read-outs that look alike come from different tables or passages of the source.

Key:
[1] = system: SARS-CoV-2 viral replication; conditions: cited from earlier work
[2] = target: SARS-CoV-2 PLpro (Severe acute respiratory syndrome coronavirus 2, UniProt P0DTD1); experiment: FRET-based PLpro enzymatic assay; assay type: biochemical
How it was run: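 200 nM PLpro in 50 mM Hepes pH 7.5, 0.01% Triton X-100, 5 mM DTT, preincubated with compound 30 min at 30 °C; 10 μM final FRET substrate.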

[3] = Cytotoxicity assay in Vero E6 cells (neutral red uptake); assay type: cell-based; conditions: African green monkey
[4] = 200 nM PLpro, 10 μM FRET substrate, 30 min preincubation at 30° C., read-out: IC50
[5] = Vero E6 cells, 2 days at 37° C., neutral red uptake, read-out: Vero CC50

| Structure (SMILES) | EC50 [1] | IC50 [2, 4] | CC50 at 2 days [3, 5] | IC50 [2] | CC50 at 2 days [3] |
| --- | --- | --- | --- | --- | --- |
| Cc1ccc(N)cc1C(=O)N[C@H](C)c1cccc2ccccc12 [GRL0617] | ~20 µM | – | – | – | – |
| Cc1ccc(OCCN(C)C)cc1C(=O)N[C@H](C)c1cc(-c2ccc(CN3CCCC3)s2)nc2ccccc12 [Example 51, (R)-5-(2-(dimethylamino)ethoxy)-2-methyl-N-(1-(2-(5-(pyrrolidin-1-ylmethyl)thiophen-2-yl)quinolin-4-yl)ethyl)benzamide] | – | < 0.5 µM | 27.1 ± 14 µM | – | – |
| Cc1ccc(OCCN(C)C)cc1C(=O)N[C@H](C)c1cc(-c2cccs2)nc2ccccc12 [Example 1, (R)-5-(2-(dimethylamino)ethoxy)-2-methyl-N-(1-(2-(thiophen-2-yl)quinolin-4-yl)ethyl)benzamide] | – | < 0.5 µM | 12.2 ± 0.85 µM | – | – |
| Cc1ccc(NC2(C)CN(C)C2)cc1C(=O)N[C@H](C)c1cc(-c2cnn(C)c2)nc2ccccc12 [Example 94, (R)-5-((1,3-dimethylazetidin-3-yl)amino)-2-methyl-N-(1-(2-(1-methyl-1H-pyrazol-4-yl)quinolin-4-yl)ethyl)benzamide] | – | 1 to 5 µM | 154 µM | – | – |
| Cc1ccc(C2=CCN(C)CC2)cc1C(=O)N[C@H](C)c1cc(-c2cnn(C)c2)nc2ccccc12 [Example 86, (R)-2-methyl-5-(1-methyl-1,2,3,6-tetrahydropyridin-4-yl)-N-(1-(2-(1-methyl-1H-pyrazol-4-yl)quinolin-4-yl)ethyl)benzamide] | – | 1 to 5 µM | 92.7 ± 4.59 µM | – | – |
| Cc1ccc(N2CC3CCC(C2)N3C)cc1C(=O)N[C@H](C)c1cc(-c2ccn(C)n2)nc2ccccc12 [Example 102, 2-methyl-N—((R)-1-(2-(1-methyl-1H-pyrazol-3-yl)quinolin-4-yl)ethyl)-5-(8-methyl-3,8-diazabicyclo[3.2.1]octan-3-yl)benzamide] | – | – | – | < 0.5 µM | 15.2 ± 1.09 µM |
| Cc1ccc(OCCN(C)C)cc1C(=O)N[C@H](C)c1cc(-c2cnn(CC(=O)O)c2)nc2ccccc12 [Example 53, (R)-2-(4-(4-(1-(5-(2-(dimethylamino)ethoxy)-2-methylbenzamido)ethyl)quinolin-2-yl)-1H-pyrazol-1-yl)acetic acid] | – | < 0.5 µM | > 250 µM | – | – |
| Cc1ccc(OCCN(C)C)cc1C(=O)N[C@@H](C)c1cc(-c2cccs2)nc2ccccc12 [Example 2, (S)-5-(2-(dimethylamino)ethoxy)-2-methyl-N-(1-(2-(thiophen-2-yl)quinolin-4-yl)ethyl)benzamide] | – | 1 to 5 µM | 11.4 ± 0.79 µM | – | – |
| Cc1ccc(OCCN(C)C)cc1C(=O)N[C@H](C)c1cc(-c2cc[nH]c(=O)c2)nc2ccccc12 [Example 54, (R)-5-(2-(dimethylamino)ethoxy)-2-methyl-N-(1-(2-(2-oxo-1,2-dihydropyridin-4-yl)quinolin-4-yl)ethyl)benzamide] | – | 0.5 to 1 µM | > 125 µM | – | – |
| Cc1ccc(N2CC[C@@H](N(C)C)C2)cc1C(=O)N[C@H](C)c1cc(-c2ccn(C)n2)nc2ccccc12 [Example 100, 5-((R)-3-(dimethylamino)pyrrolidin-1-yl)-2-methyl-N—((R)-1-(2-(1-methyl-1H-pyrazol-3-yl)quinolin-4-yl)ethyl)benzamide] | – | < 0.5 µM | 30.6 ± 1.72 µM | – | – |
| Cc1ccc(N2CCC(N(C)C)CC2)cc1C(=O)N[C@H](C)c1cc(-c2cnn(C)c2)nc2ccccc12 [Example 87, (R)-5-(4-(dimethylamino)piperidin-1-yl)-2-methyl-N-(1-(2-(1-methyl-1H-pyrazol-4-yl)quinolin-4-yl)ethyl)benzamide] | – | 1 to 5 µM | 73.8 ± 5.88 µM | – | – |
| Cc1ccc(OCCN(C)C)cc1C(=O)N[C@H](C)c1cc(Cl)nc2ccccc12 [Example 11, (R)—N-(1-(2-chloroquinolin-4-yl)ethyl)-5-(2-(dimethylamino)-ethoxy)-2-methylbenzamide] | – | 0.5 to 1 µM | 101 ± 11.3 µM | – | – |
| Cc1ccc(OC[C@@H]2CCCN2C)cc1C(=O)N[C@H](C)c1cc(-c2ccn(C)n2)nc2ccccc12 [Example 98, 2-methyl-N—((R)-1-(2-(1-methyl-1H-pyrazol-3-yl)quinolin-4-yl)ethyl)-5-(((S)-1-methylpyrrolidin-2-yl)methoxy)benzamide] | – | < 0.5 µM | 18.8 ± 1.49 µM | – | – |
| Cc1ccc(OCCN(C)C)cc1C(=O)N[C@H](C)c1cc(-c2cnn(CCO)c2)nc2ccccc12 [Example 22, (R)-5-(2-(dimethylamino)ethoxy)-N-(1-(2-(1-(2-hydroxyethyl)-1H-pyrazol-4-yl)quinolin-4-yl)ethyl)-2-methylbenzamide] | – | < 0.5 µM | 153 ± 43.9 µM | – | – |
| Cc1ccc(N(C)CC2CN(C)C2)cc1C(=O)N[C@H](C)c1cc(-c2cnn(C)c2)nc2ccccc12 [Example 89, (R)-2-methyl-5-(methyl((1-methylazetidin-3-yl)methyl)amino)-N-(1-(2-(1-methyl-1H-pyrazol-4-yl)quinolin-4-yl)ethyl)benzamide] | – | 1 to 5 µM | 89.3 µM | – | – |
| Cc1ccc(OCCN(C)C)cc1C(=O)N[C@H](C)c1cc(-c2cnn(CC(F)(F)F)c2)nc2ccccc12 [Example 10, (R)-5-(2-(dimethylamino)ethoxy)-2-methyl-N-(1-(2-(1-(2,2,2-trifluoroethyl)-1H-pyrazol-4-yl)quinolin-4-yl)ethyl)benzamide] | – | < 0.5 µM | 60.8 ± 14.1 µM | – | – |
| Cc1ccc(OCCN(C)C)cc1C(=O)N[C@H](C)c1cc(-n2cncn2)nc2ccccc12 [Example 47, (R)—N-(1-(2-(1H-1,2,4-triazol-1-yl)quinoline 4-yl)ethyl)-5-(2-(dimethylamino)ethoxy)-2-methylbenzamide] | – | 0.5 to 1 µM | 17.5 ± 5.23 µM | – | – |
| Cc1ccc(OCCN(C)C)cc1C(=O)N[C@H](C)c1cc(-c2cnn(CC(N)=O)c2)nc2ccccc12 [Example 24, (R)—N-(1-(2-(1-(2-amino-2-oxoethyl)-1H-pyrazol-4-yl)quinolin-4-yl)ethyl)-5-(2-(dimethylamino)ethoxy)-2-methylbenzamide] | – | < 0.5 µM | > 250 µM | – | – |
| Cc1ccc(OCCN(C)C)cc1C(=O)N[C@H](C)c1cc(-c2ccc(CN3CCOCC3)s2)nc2ccccc12 [Example 16, (R)-5-(2-(dimethylamino)ethoxy)-2-methyl-N-(1-(2-(5-(morpholinomethyl)thiophen-2-yl)quinolin-4-yl)ethyl)benzamide] | – | < 0.5 µM | 30.6 ± 10.6 µM | – | – |
| Cc1ccc(OC[C@@H]2CCN2C)cc1C(=O)NC1(c2cc(-c3cnn(C)c3)nc3ccccc23)CC1 [Example 115, (S)-2-methyl-N-(1-(2-(1-methyl-1H-pyrazol-4-yl)quinolin-4-yl)cyclopropyl)-5-((1-methylazetidin-2-yl)methoxy)benzamide] | – | < 0.5 µM | 127 ± 7.89 µM | – | – |
